Reference: PubChem BioAssay (NCI)
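Abbreviation: GI50, concentration required for 50% inhibition of growth. At the TGI there is no net growth.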

Columns and labels:
Assay in all cases: DTP human tumour cell line panel, 384-well format
OVCAR-3 ovarian = system: OVCAR-3 ovarian
HT29 colon = system: HT29 colon
NCI-H322M lung = system: NCI-H322M lung
TK-10 renal = system: TK-10 renal
COLO 205 colon = system: COLO 205 colon
HCC-2998 colon = system: HCC-2998 colon
RXF 393 renal = system: RXF 393 renal
NCI-H460 NSCLC = system: NCI-H460 NSCLC
OVCAR-8 ovarian = system: OVCAR-8 ovarian
HS 578T breast = system: HS 578T breast
SF-268 CNS = system: SF-268 CNS
A498 renal = system: A498 renal
SN12C renal = system: SN12C renal
SF-295 CNS = system: SF-295 CNS
UACC-257 melanoma = system: UACC-257 melanoma
M14 melanoma = system: M14 melanoma
DU-145 prostate = system: DU-145 prostate
SNB-75 CNS = system: SNB-75 CNS
U251 glioblastoma = system: U251 glioblastoma
SW-620 colon = system: SW-620 colon
ACHN renal = system: ACHN renal
MDA-MB-468 breast = system: MDA-MB-468 breast
K-562 leukemia = system: K-562 leukemia
UO-31 renal = system: UO-31 renal
UACC-62 melanoma = system: UACC-62 melanoma
IGROV1 ovarian = system: IGROV1 ovarian
A549 NSCLC = system: A549 NSCLC
PC-3 prostate = system: PC-3 prostate
LOX IMVI melanoma = system: LOX IMVI melanoma
NCI-H226 lung = system: NCI-H226 lung
MALME-3M melanoma = system: MALME-3M melanoma
KM12 colon = system: KM12 colon
HL-60(TB) leukemia = system: HL-60(TB) leukemia
MDA-MB-231 breast = system: MDA-MB-231 breast
SK-MEL-28 melanoma = system: SK-MEL-28 melanoma
MOLT-4 leukemia = system: MOLT-4 leukemia
MCF7 breast = system: MCF7 breast
RPMI-8226 leukemia = system: RPMI-8226 leukemia
OVCAR-5 ovarian = system: OVCAR-5 ovarian
OVCAR-4 ovarian = system: OVCAR-4 ovarian
HOP-62 NSCLC = system: HOP-62 NSCLC
NCI-H522 lung = system: NCI-H522 lung
SK-OV-3 ovarian = system: SK-OV-3 ovarian
EKVX NSCLC = system: EKVX NSCLC
CAKI-1 renal = system: CAKI-1 renal
NCI-H23 lung = system: NCI-H23 lung
SNB-19 CNS = system: SNB-19 CNS
786-0 renal = system: 786-0 renal
MDA-MB-435 melanoma = system: MDA-MB-435 melanoma
HOP-92 NSCLC = system: HOP-92 NSCLC
CCRF-CEM leukemia = system: CCRF-CEM leukemia
SF-539 CNS = system: SF-539 CNS
HCT-15 colon = system: HCT-15 colon
BT-549 breast = system: BT-549 breast
T-47D breast = system: T-47D breast
NCI/ADR-RES ovarian = system: NCI/ADR-RES ovarian
HCT-116 colon = system: HCT-116 colon
SK-MEL-5 melanoma = system: SK-MEL-5 melanoma

`C=CC(=O)Nc1cc2c(Nc3ccc(F)c(Cl)c3)ncnc2cc1OCCCN1CCOCC1` showed a GI50 (OVCAR-3 ovarian) of 1.03 µM, a TGI (OVCAR-3 ovarian) of 2.22 µM and a GI50 (HT29 colon) of 1.55 µM. For the same compound, the TGI (HT29 colon) was 3 µM, the GI50 (NCI-H322M lung) was less than 0.01 µM and the TGI (NCI-H322M lung) was 1.29 µM. It also gave a GI50 (TK-10 renal) of 0.0368 µM, a TGI (TK-10 renal) of 2.09 µM and a GI50 (COLO 205 colon) of 1.6 µM. For the same compound, the TGI (COLO 205 colon) was 3.11 µM, the GI50 (HCC-2998 colon) was 1.32 µM and the TGI (HCC-2998 colon) was 2.63 µM. The GI50 (RXF 393 renal) was 0.62 µM, the TGI (RXF 393 renal) was 2 µM and the GI50 (NCI-H460 NSCLC) was 1.51 µM. It also gave a TGI (NCI-H460 NSCLC) of 2.9 µM, a GI50 (OVCAR-8 ovarian) of 1.44 µM and a TGI (OVCAR-8 ovarian) of 2.79 µM. The GI50 (HS 578T breast) was 1.22 µM, the TGI (HS 578T breast) was 2.49 µM and the GI50 (SF-268 CNS) was 0.209 µM. The TGI (SF-268 CNS) was 1.65 µM, the GI50 (A498 renal) was 0.424 µM and the TGI (A498 renal) was 1.91 µM. For the same compound, the GI50 (SN12C renal) was 0.267 µM, the TGI (SN12C renal) was 1.91 µM and the GI50 (SF-295 CNS) was 4.62 µM. It also gave a TGI (SF-295 CNS) of 15.8 µM, a GI50 (UACC-257 melanoma) of 1.31 µM and a TGI (UACC-257 melanoma) of 2.62 µM. For the same compound, the GI50 (M14 melanoma) was 1.58 µM, the TGI (M14 melanoma) was 2.95 µM and the GI50 (DU-145 prostate) was 1.07 µM. The TGI (DU-145 prostate) was 4.19 µM, the GI50 (SNB-75 CNS) was 1.12 µM and the TGI (SNB-75 CNS) was 2.91 µM. The GI50 (U251 glioblastoma) was 1.91 µM, the TGI (U251 glioblastoma) was 3.79 µM and the GI50 (SW-620 colon) was 1.69 µM. It also gave a TGI (SW-620 colon) of 3.08 µM, a GI50 (ACHN renal) of 0.0131 µM and a TGI (ACHN renal) of 1.66 µM. For the same compound, the GI50 (MDA-MB-468 breast) was less than 0.01 µM, the GI50 (K-562 leukemia) was 1.21 µM and the TGI (K-562 leukemia) was 2.49 µM. For the same compound, the GI50 (UO-31 renal) was 1.17 µM, the TGI (UO-31 renal) was 4.22 µM and the GI50 (UACC-62 melanoma) was 1.45 µM. For the same compound, the TGI (UACC-62 melanoma) was 2.78 µM, the GI50 (IGROV1 ovarian) was less than 0.01 µM and the TGI (IGROV1 ovarian) was 0.838 µM. For the same compound, the GI50 (A549 NSCLC) was 1.32 µM, the TGI (A549 NSCLC) was 2.71 µM and the GI50 (PC-3 prostate) was 1.69 µM. For the same compound, the TGI (PC-3 prostate) was 3.11 µM, the GI50 (LOX IMVI melanoma) was 1.51 µM and the TGI (LOX IMVI melanoma) was 2.87 µM. For the same compound, the GI50 (NCI-H226 lung) was 1.96 µM, the TGI (NCI-H226 lung) was 4.7 µM and the GI50 (MALME-3M melanoma) was 1.72 µM. For the same compound, the TGI (MALME-3M melanoma) was 3.13 µM, the GI50 (KM12 colon) was 1.58 µM and the TGI (KM12 colon) was 3.02 µM. The GI50 (HL-60(TB) leukemia) was 1.22 µM, the TGI (HL-60(TB) leukemia) was 2.5 µM and the GI50 (MDA-MB-231 breast) was 1.53 µM. It also gave a TGI (MDA-MB-231 breast) of 3.77 µM, a GI50 (SK-MEL-28 melanoma) of 2.03 µM and a TGI (SK-MEL-28 melanoma) of 3.52 µM. For the same compound, the GI50 (MOLT-4 leukemia) was 0.933 µM, the TGI (MOLT-4 leukemia) was 2.15 µM and the GI50 (MCF7 breast) was 1.14 µM. The TGI (MCF7 breast) was 2.52 µM, the GI50 (RPMI-8226 leukemia) was 1.22 µM and the TGI (RPMI-8226 leukemia) was 2.49 µM. It also gave a GI50 (OVCAR-5 ovarian) of 1.74 µM, a TGI (OVCAR-5 ovarian) of 13.6 µM and a GI50 (OVCAR-4 ovarian) of 2.02 µM. For the same compound, the TGI (OVCAR-4 ovarian) was 6 µM, the GI50 (HOP-62 NSCLC) was 1.64 µM and the TGI (HOP-62 NSCLC) was 3.7 µM. It also gave a GI50 (NCI-H522 lung) of 0.0653 µM, a TGI (NCI-H522 lung) of 0.454 µM and a GI50 (SK-OV-3 ovarian) of 1.06 µM. The TGI (SK-OV-3 ovarian) was 2.67 µM, the GI50 (EKVX NSCLC) was 0.0507 µM and the TGI (EKVX NSCLC) was 1.93 µM. It also gave a GI50 (CAKI-1 renal) of 0.462 µM, a TGI (CAKI-1 renal) of 1.99 µM and a GI50 (NCI-H23 lung) of 1.47 µM. It also gave a TGI (NCI-H23 lung) of 2.8 µM, a GI50 (SNB-19 CNS) of 1.85 µM and a TGI (SNB-19 CNS) of 4.14 µM. It also gave a GI50 ([…]-0 renal) of 1.16 µM, a TGI (786-0 renal) of 2.49 µM and a GI50 (MDA-MB-435 melanoma) of 2.42 µM. It also gave a TGI (MDA-MB-435 melanoma) of 5.09 µM, a GI50 (HOP-92 NSCLC) of 1.4 µM and a TGI (HOP-92 NSCLC) of 2.93 µM. The GI50 (CCRF-CEM leukemia) was 1.2 µM, the TGI (CCRF-CEM leukemia) was 2.46 µM and the GI50 (SF-539 CNS) was 1.37 µM. The TGI (SF-539 CNS) was 2.68 µM, the GI50 (HCT-15 colon) was 1.19 µM and the TGI (HCT-15 colon) was 2.47 µM. For the same compound, the GI50 (BT-549 breast) was 1.06 µM, the TGI (BT-549 breast) was 2.27 µM and the GI50 (T-47D breast) was 0.0547 µM. For the same compound, the TGI (T-47D breast) was 1.44 µM, the GI50 (NCI/ADR-RES ovarian) was 1.45 µM and the TGI (NCI/ADR-RES ovarian) was 2.87 µM. The GI50 (HCT-116 colon) was 1.76 µM, the TGI (HCT-116 colon) was 3.26 µM and the GI50 (SK-MEL-5 melanoma) was 1.41 µM. It also gave a TGI (SK-MEL-5 melanoma) of 2.75 µM.
